Experimental data: patent US20110082133A1, “PYRIDONE COMPOUNDS” (priority 2008, published 2011)
Counter-ions that a name gives are not always drawn.

Legend:
[1] = biological target: rat EP4 receptor (Rattus norvegicus, UniProt P43114); experiment: Evaluation test on EP4 receptor affinity in rat ([3H]PGE2 receptor binding test, membrane fraction); set-up: expressed in transfected cells; host or cells: HEK293 cells, transient transfection (Lipofectamine 2000); membrane fraction used; conditions: [3H]PGE2 0.3 nM, membrane fraction of rat EP4 expressing HEK293 cells
Description: A rat EP4 receptor cDNA was subcloned into an expression vector (pcDNA3.1-V5-His-topo, manufactured by Invitrogen Corporation) to prepare a rat EP4 expression vector. HEK293 cells were cultured in a collagen type I-treated 15 cm dish (manufactured by Asahi Techno Glass Co. Ltd.) to a confluence of 70%. An Opti-MEM culture medium at 1.2 mL/dish and a transfection reagent (Lipofectamine 2000, manufactured by Invitrogen Corporation) at 60 μL/dish were mixed, followed by being left to stand at room temperature for 5 minutes. Then, the rat EP4 receptor expression vector at 15 μg/dish was added thereto, followed by being left to stand at room temperature for 30 minutes. The liquid mixture of the transfection reagent was added into the dish, followed by culturing for 20 to 24 hours. The cell culture was carried out in a CO2 incubator (37° C., 5% CO2).
The culture medium was removed by suction, 10 mL of cooled PBS was added thereto per 15 cm dish, and the cells were scraped using a cell scraper. After washed with cooled PBS (1,200 rpm, 4° C., 5 minutes), suspended in 6 mL/dish of cooled 20 mM Tris-HCl (pH 7.4; manufactured by Nacalai Tesque Inc., 5 mM EDTA included) and homogenized using a Polytron, the homogenate was centrifuged (26,000 rpm, 20 minutes, 4° C.). The obtained precipitate was resuspended in cooled 20 mM Tris-HCl and homogenized again using a Polytron, and the homogenate was centrifuged (26,000 rpm, 20 minutes, 4° C.). The obtained precipitate was resuspended in 50 mM HEPES (pH 7.5; manufactured by Dojindo Laboratories) at 1 mL per dish, homogenized using a Polytron, and freeze-stored at −80° C. as a membrane fraction. At this time, a part thereof was used for the measurement of the protein concentration. Measurement of the protein concentration was carried out using a Protein assay stain (manufactured by Bio-Rad Laboratories) in accordance with a standard Protocol as appended in duplicate.
[^3H]PGE2 50 μL (final concentration 0.3 nM; manufactured by Perkin Elmer Co., Ltd.), 100 μL (20 μg/well) of the membrane fraction prepared from the rat EP4 expression cell, and 50 μL of a test compound were mixed in a 96-well microplate (manufactured by Sumitomo Bakelite Co., Ltd.), incubated at room temperature for 1 hour, then filtered by suction on a microplate (UniFilter-96 GF/B, manufactured by Perkin Elmer Co., Ltd.) using a cell harvester (FilterMate Harvester, manufactured by Perkin Elmer Co., Ltd.), and washed three times with 300 μL/well of a cooled assay buffer (50 mM HEPES, 10 mM MgCl2). Dilution of [^3H]PGE2 and the membrane fraction was carried out using the assay buffer, and dilution of the test compound and the unlabeled PGE2 was carried out using dimethyl sulfoxide and the assay buffer. The UniFilter-96 GF/B was treated by preliminarily washing twice with 200 μL/well of the cooled assay buffer. The UniFilter-96 GF/B after filtration was dried in a dryer overnight, 50 μL/well of a liquid scintillation cocktail (MicroScint20, manufactured by Perkin Elmer Co., Ltd.) was added thereto, and the radioactivity was then measured using a liquid scintillation counter for a microplate (TopCount, manufactured by Perkin Elmer Co., Ltd.). For measurement of the non-specific binding, an unlabeled PGE2 (final concentration 1 μM; manufactured by Cayman Chemical Company) was added. All of the measurements were carried out in duplicate, and the specific binding amount was determined by subtracting the non-specific binding amount from the total binding amount.
According to the test method as described above, the rat EP4 receptor affinity (Ki) of the compound of the formula (I) was measured. […] In this connection, Ex means Example Compound number.

[2] = biological target: T1, rat EP3β receptor (Rattus norvegicus, UniProt P34980); experiment: Rat EP3 receptor agonistic/antagonistic action (intracellular Ca2+, FLIPR, HEK293 stable expression cells); assay type: cell-based; conditions: inhibition of intracellular Ca2+ increasing action by PGE2; read-out: RatEP3 Antagonistic Action IC50
T1 construct: expressed in transfected cells
T1 sequence (P34980 1-361 isoform P34980-2): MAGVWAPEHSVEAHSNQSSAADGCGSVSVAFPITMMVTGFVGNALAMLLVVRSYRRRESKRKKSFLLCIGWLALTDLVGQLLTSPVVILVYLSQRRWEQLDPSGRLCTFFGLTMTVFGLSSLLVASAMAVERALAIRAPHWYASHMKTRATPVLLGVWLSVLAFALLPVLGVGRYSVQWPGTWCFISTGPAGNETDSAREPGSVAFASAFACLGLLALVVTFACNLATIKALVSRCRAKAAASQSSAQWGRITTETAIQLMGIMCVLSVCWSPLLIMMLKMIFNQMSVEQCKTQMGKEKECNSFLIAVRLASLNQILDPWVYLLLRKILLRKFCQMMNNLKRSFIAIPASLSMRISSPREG
Description: Using rat EP1 or rat EP3β receptor stable expression cells, the intracellular Ca^2+ concentration was measured using a fluorescent imaging plate reader (FLIPR manufactured by Molecular Devices Corporation). The agonistic activity was evaluated by the intracellular Ca^2+ increasing action of the test compound, and the antagonistic activity was evaluated by the inhibiting action of the test compound on the intracellular Ca^2+ increasing action by PGE2.
The cDNA of the rat EP 1 or EP3β receptor was subcloned into an expression vector (pcDNA3.1-V5-His-topo, manufactured by Invitrogen Corporation). This expression vector was introduced into HEK293 cells (American Type Culture Collection) to prepare a rat EP1 or EP3β receptor stable expression cell line. These cells were seeded onto a 96-well poly-D-lysin treated black wall clear bottom plate (manufactured by Becton, Dickinson and Company) at 2 to 3×10^4 cell/well, and used for the experiment the next day. The measurement of the intracellular Ca^2+ concentration was carried out by an FLIPR calcium 3 assay kit (manufactured by Molecular Devices Corporation). The culture medium of each well was removed by suction and replaced with a loading buffer (Hank's balanced salt solution containing 20 mM HEPES-NaOH (pH 7.4), 2.5 mM Probenecid, 0.1% bovine serum albumin, and a color), followed by incubating at room temperature for 3 hours and loading a color. For the evaluation of the agonistic action, the change in the intracellular Ca^2+ concentration was determined from the difference in the maximum value of the intracellular Ca^2+ concentration after the addition of the test compound and the value before the addition of the test compound. For the evaluation of the antagonistic action, after incubating the test compound for 5 minutes, PGE2 was added thereto to determine the change in the intracellular Ca^2+ concentration by PGE2.
Further, NE means that the action has no significance.

rat EP4 receptor, sequence (P43114 whole entry): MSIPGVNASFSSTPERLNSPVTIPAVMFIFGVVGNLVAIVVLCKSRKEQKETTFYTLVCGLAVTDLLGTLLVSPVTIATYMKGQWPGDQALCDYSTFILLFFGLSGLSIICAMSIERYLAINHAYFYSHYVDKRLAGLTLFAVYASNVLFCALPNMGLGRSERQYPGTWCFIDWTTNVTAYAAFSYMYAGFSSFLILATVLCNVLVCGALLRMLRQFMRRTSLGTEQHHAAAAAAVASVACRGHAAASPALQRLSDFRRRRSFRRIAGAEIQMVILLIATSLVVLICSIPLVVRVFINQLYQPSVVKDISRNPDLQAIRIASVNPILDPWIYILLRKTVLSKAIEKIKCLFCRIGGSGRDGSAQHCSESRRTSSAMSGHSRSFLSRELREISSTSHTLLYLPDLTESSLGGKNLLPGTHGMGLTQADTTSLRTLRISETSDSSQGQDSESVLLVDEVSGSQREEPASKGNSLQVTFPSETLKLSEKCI

Ki [1] [nM]	IC50 [2] [µM]	Compound
11	> 10	O=C(O)c1ccc(CCn2c(CN3CCc4ccc(F)cc43)c(Cl)cc(Cl)c2=O)cc1 [Example 9, 4-(2-{3,5-dichloro-6-[(6-fluoro-2,3-dihydro-1H-indol-1-yl)methyl]-2-oxopyridin-1(21-1)-yl}ethyl)benzoic acid]
11	> 10	CCC[C@H]1CCCN1Cc1c(Cl)cc(Cl)c(=O)n1CCc1ccc(C(=O)O)cc1 [Example 17, 4-{2-[3,5-dichloro-2-oxo-6-{[(2S)-2-propylpyrrolidin-1-yl]methyl}pyridin-1(2H)-yl]ethyl}benzoic acid trifluoroacetate]
10	> 10	O=C(O)c1ccc(CCn2c(CNc3cccc(OC(F)(F)F)c3)c(Cl)cc(Cl)c2=O)cc1 [Example 107]
11	≥ 10	CN(Cc1c(Cl)cc(Cl)c(=O)n1CCc1ccc(C(=O)O)cc1)c1cccc(Cl)c1 [Example 160]
